Active and inactive are the calls of the source. How the calls were made is not given here.
Test system: Mycobacterium tuberculosis replicating growth, CFU imaging
Assay: replicating M. tuberculosis growth inhibition, dose response, imaging, dry powder (AID 743404)
Settings: not given

Structure (SMILES) | AC90
Cn1c(NC(=O)c2ccc(N3CCCCC3)cc2)nc2ccccc21 | > 100 µM (inactive)
Cn1c(NC(=O)c2ccccc2)nc2cc(C#N)ccc21 | > 100 µM (inactive)
CO[C@H]1/C=C/O[C@@]2(C)Oc3c(C)c(O)c4c(O)c(c(C=NN5CCN(C)CC5)c(O)c4c3C2=O)NC(=O)/C(C)=C\C=C\[C@H](C)[C@H](O)[C@@H](C)[C@@H](O)[C@@H](C)[C@H](OC(C)=O)[C@@H]1C | 6.43 µM
Cn1c(NC(=O)c2ccccc2)nc2c3ccncc3ccc21 | 18.4 µM
Cc1ccccc1C(=O)Nc1nc2ccccc2n1C | > 100 µM (inactive)
CN1CCN(c2ccc(C(=O)Nc3nc4ccccc4n3C)cc2)CC1 | > 100 µM (inactive)
Cn1c(NC(=O)c2ccccc2)nc2c(Cl)cccc21 | > 100 µM (inactive)
Cn1c(NC(=O)c2ccccc2)nc2c3cnccc3ccc21 | 14.4 µM
Cn1c(NC(=O)c2ccccc2)nc2c(C#N)cccc21 | > 100 µM (inactive)
CCN(CC)CCn1c(NC(=O)c2ccccc2)nc2ccccc21 | 102 µM
Cn1c(N)nc2ccccc21 | > 50 µM (inactive)
O=C(Nc1nc2ccccc2n1C1CCCCC1)c1ccccc1 | > 100 µM (inactive)
Cn1c(N2CCN(C(=O)c3ccccc3)CC2)nc2ccccc21 | > 100 µM (inactive)
Cn1c(NC(=O)c2ccccc2)nc2c3nccnc3ccc21 | 63.9 µM
Cn1c(NC(=O)c2ccccc2)nc2c3ncccc3ccc21 | 10.6 µM
Cn1c(NC(=O)c2cccnc2)nc2ccccc21 | 99.8 µM

Test system: not listed separately
Assay: as above
Settings: Mycobacterium tuberculosis replicating growth, CFU imaging; at 50 µM (top of the series)

Structure (SMILES) | activity change, negative = inhibition
O=C(Nc1nc2ccccc2n1-c1ccccc1)c1ccccc1 | -7.02% (inactive)

Same assay, conditions: Mycobacterium tuberculosis replicating growth, CFU imaging; at 100 µM (top of the series)

Structure (SMILES) | activity change, negative = inhibition
COc1ccccc1C(=O)Nc1nc2ccccc2n1C | -18% (inactive)
COc1cccc(C(=O)Nc2nc3ccccc3n2C)c1 | -11.3% (inactive)
Cn1c(NC(=O)c2ccc(-n3ccnn3)cc2)nc2ccccc21 | 0.752% (inactive)
Cn1c(NC(=O)c2ccccc2C(F)(F)F)nc2ccccc21 | -8.14% (inactive)
Cn1c(NC(=O)c2ccccc2)nc2cc(F)ccc21 | -9.27% (inactive)
Cn1c(NC(=O)c2ccc(N3CCOCC3)cc2)nc2ccccc21 | -9.12% (inactive)
Cn1c(NC(=O)c2ccc(C#N)cc2)nc2ccccc21 | -1.94% (inactive)
CC(=O)Nc1nc2ccccc2n1C | -2.24% (inactive)
Cn1c(NC(=O)c2ccccc2)nc2cccc(Cl)c21 | -2% (inactive)
COc1ccc(C(=O)Nc2nc3ccccc3n2C)cc1 | -7.64% (inactive)
Cn1c(NC(=O)c2ccccc2)nc2ccc(F)cc21 | -13% (inactive)
Cn1c(NC(=O)c2ccc(OC(F)(F)F)cc2)nc2ccccc21 | 1.97% (inactive)
Cn1c(NC(=O)Nc2ccccc2)nc2ccccc21 | -16.1% (inactive)
O=C(Nc1nc2ccccc2n1CCN1CCOCC1)c1ccccc1 | -5.41% (inactive)
Cn1c(NC(=O)c2ccccc2Cl)nc2ccccc21 | -2.89% (inactive)
O=C(Nc1nc2ccccc2[nH]1)c1ccccc1 | 1.93% (inactive)
Cn1c(NC(=O)c2ccc(N3CCOC3=O)cc2)nc2ccccc21 | 3.62% (inactive)
Cn1c(NC(=O)c2cccs2)nc2ccccc21 | -15.5% (inactive)
Cn1c(NC(=O)c2nc3ccccc3s2)nc2ccccc21 | 3.65% (inactive)
Cn1c(NC(=O)c2ccncc2)nc2ccccc21 | -9.25% (inactive)
Cn1c(NS(=O)(=O)c2ccccc2)nc2ccccc21 | -4.4% (inactive)
Cn1c(C(=O)Nc2ccccc2)nc2ccccc21 | -11.4% (inactive)
Cc1ccc2c(c1)nc(NC(=O)c1ccccc1)n2C | -14.6% (inactive)
Cn1c(NC(=O)c2ccccc2)nc2cc(C(F)(F)F)ccc21 | -1.86% (inactive)

Structure (SMILES) | activity change, negative = inhibition
COc1cccc2c1nc(NC(=O)c1ccccc1)n2C | -17.3% (inactive)
Cn1c(NC(=O)Cc2ccccc2)nc2ccccc21 | -15.4% (inactive)
Cn1c(NC(=O)c2ccno2)nc2ccccc21 | -5.54% (inactive)
O=C(Nc1nc2ccccc2s1)c1ccccc1 | -9.11% (inactive)
CN(C(=O)c1ccccc1)c1nc2ccccc2n1C | -7.26% (inactive)
O=C(Nc1nc2ccccc2n1C1CC1)c1ccccc1 | -6.92% (inactive)
COc1ccc(C(=O)Nc2nc3ccccc3n2C)cc1OC | -3.35% (inactive)
Cn1c(NC(=O)c2ccc3ncoc3c2)nc2ccccc21 | 1.4% (inactive)
Cn1c(NC(=O)c2ccc(-c3nccs3)cc2)nc2ccccc21 | 1.95% (inactive)
Cn1c(NC(=O)c2ccc(F)c(F)c2)nc2ccccc21 | 1.94% (inactive)
Cn1c(NC(=O)c2ccccc2)nc2ccc3ncccc3c21 | -10.6% (inactive)
CC(C)n1c(NC(=O)c2ccccc2)nc2ccccc21 | -7.84% (inactive)
Cn1c(NC(=O)c2ccc(Oc3ccccc3)cc2)nc2ccccc21 | -18.8% (inactive)
Cn1c(NC(=O)c2ccc(Cl)c(Cl)c2)nc2ccccc21 | 0.098% (inactive)
Cn1c(NC(=O)c2ccccc2)nc2cccnc21 | -6.96% (inactive)
Cc1cc(C(=O)Nc2nc3ccccc3n2C)on1 | -7.86% (inactive)
Cn1c(NC(=O)c2cccc(C(F)(F)F)c2)nc2ccccc21 | -12.4% (inactive)
O=C(Nc1nc2ccccc2n1Cc1ccccc1)c1ccccc1 | 3.29% (inactive)
Cn1c(NC(=O)c2ccccc2)nc2cc(Cl)ccc21 | -6.62% (inactive)
Cn1c(NC(=O)c2ccccc2)nc2ccc(C#N)cc21 | 4.9% (inactive)
CC(C)Oc1ccc(C(=O)Nc2nc3ccccc3n2C)cc1 | -8.59% (inactive)
COCCn1c(NC(=O)c2ccccc2)nc2ccccc21 | -13.8% (inactive)
COc1ccc2c(c1)nc(NC(=O)c1ccccc1)n2C | -10.1% (inactive)
Cn1c(NC(=O)c2ccc(-c3ncco3)cc2)nc2ccccc21 | -1.55% (inactive)

From PubChem BioAssay AID743404 (Broad Institute, 2014)
